In ChEMBL document CHEMBL1130551, “Synthesis and progesterone receptor binding affinity of substituted 1-phenyl-7-benzyl-4,5,6,7-tetrahydro-1-indazoles” (Bioorg Med Chem Lett, 1997):
Activity calls are given as the source filed them. No cut-off for these calls is given here.

Tests used:
Progesterone receptor [1] = molecular target: T1, Progesterone receptor (Oryctolagus cuniculus, UniProt P06186); assay: Binding affinity determined by ability to displace [3H]R5020 radioligand using uterine progesterone receptor obtained from estrogen-primed rabbit
T1 sequence (P06186 whole entry): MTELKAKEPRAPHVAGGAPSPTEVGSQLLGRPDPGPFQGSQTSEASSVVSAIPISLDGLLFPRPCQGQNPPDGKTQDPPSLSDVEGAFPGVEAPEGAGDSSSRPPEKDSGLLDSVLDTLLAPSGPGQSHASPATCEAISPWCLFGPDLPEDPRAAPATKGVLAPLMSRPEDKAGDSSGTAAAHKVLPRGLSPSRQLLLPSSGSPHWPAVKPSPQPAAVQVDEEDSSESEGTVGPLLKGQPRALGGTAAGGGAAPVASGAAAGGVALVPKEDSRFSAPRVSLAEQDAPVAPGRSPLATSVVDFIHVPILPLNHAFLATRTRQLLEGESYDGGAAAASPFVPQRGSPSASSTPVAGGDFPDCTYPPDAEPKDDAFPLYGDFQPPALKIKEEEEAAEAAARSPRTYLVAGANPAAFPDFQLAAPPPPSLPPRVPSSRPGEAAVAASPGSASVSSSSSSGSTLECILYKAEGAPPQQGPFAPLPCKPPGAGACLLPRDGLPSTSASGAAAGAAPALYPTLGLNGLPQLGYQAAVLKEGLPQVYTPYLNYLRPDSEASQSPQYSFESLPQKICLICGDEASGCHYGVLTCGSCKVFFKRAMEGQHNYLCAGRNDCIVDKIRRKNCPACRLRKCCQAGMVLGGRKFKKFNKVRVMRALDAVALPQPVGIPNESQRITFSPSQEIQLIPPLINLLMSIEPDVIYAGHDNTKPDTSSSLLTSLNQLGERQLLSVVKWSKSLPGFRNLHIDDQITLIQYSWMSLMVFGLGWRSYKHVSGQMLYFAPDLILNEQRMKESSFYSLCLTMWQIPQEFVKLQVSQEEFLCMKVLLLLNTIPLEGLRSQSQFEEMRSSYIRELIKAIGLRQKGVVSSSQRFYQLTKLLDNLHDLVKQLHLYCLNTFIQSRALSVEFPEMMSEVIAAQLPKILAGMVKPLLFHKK

T47D [2] = assay: Agonistic activity in T47D human breast carcinoma cell proliferation assay; Not active; assay type: functional, cell-based
Progesterone receptor [3] = molecular target: T1, Progesterone receptor; assay: Displacement of [3H]R5020 from uterine progesterone receptor of estrogen-primed rabbits; Not active
T47D [4] = assay: Agonistic activity in T47D human breast carcinoma cell proliferation assay; assay type: functional
Progesterone receptor [5] = molecular target: T1, Progesterone receptor; assay: Displacement of [3H]R5020 from uterine progesterone receptor of estrogen-primed rabbits; Not active up to 10 uM
T47D [6] = assay: Agonistic activity in T47D human breast carcinoma cell proliferation assay; Not active up to 10 uM; assay type: functional, cell-based

Structure (SMILES): O=Cc1nn(-c2ccc(Cl)cc2)c2c1CCCC2Cc1cccc2ccccc12 (centres undefined)
- IC50 (Progesterone receptor [1]): 9 nM
- SC200 (T47D [2]): inactive

Structure (SMILES): O=Cc1nn(-c2ccc(O)cc2)c2c1CCCC2Cc1cccc2ccccc12 (centres undefined)
- IC50 (Progesterone receptor [3]): Not Active

Structure (SMILES): O=Cc1nn(-c2ccc(F)cc2)c2c1CCCC2Cc1ccc(-c2ccccc2)cc1 (centres undefined)
- IC50 (Progesterone receptor [1]): 10000 nM

Structure (SMILES): C=Cc1nn(-c2ccc(F)cc2)c2c1CCCC2Cc1cccc2ccccc12 (centres undefined)
- IC50 (Progesterone receptor [1]): 147 nM
- SC200 (T47D [2]): inactive

Structure (SMILES): CN/N=C/c1nn(-c2ccc(F)cc2)c2c1CCCC2Cc1cccc2ccccc12 (centres undefined)
- IC50 (Progesterone receptor [1]): 49 nM
- SC200 (T47D [2]): inactive

Structure (SMILES): O=Cc1nn(-c2ccc(F)cc2)c2c1CCCC2Cc1ccccc1 (centres undefined)
- SC200 (T47D [4]): 22 nM
- IC50 (Progesterone receptor [1]): 3 nM

Structure (SMILES): CC(O)c1nn(-c2ccc(F)cc2)c2c1CCCC2Cc1cccc2ccccc12 (centres undefined)
- IC50 (Progesterone receptor [1]): 236 nM

Structure (SMILES): O=S(=O)(N/N=C/c1nn(-c2ccc(F)cc2)c2c1CCCC2Cc1cccc2ccccc12)c1ccccc1 (centres undefined)
- IC50 (Progesterone receptor [1]): > 10000 nM
- SC200 (T47D [2]): inactive

Structure (SMILES): O=Cc1nn(-c2ccc(F)cc2)c2c1CCCC2Cc1cccc2ccccc12 (centres undefined)
- SC200 (T47D [4]): 105 nM
- IC50 (Progesterone receptor [1]): 3.2 nM

Structure (SMILES): COc1ccc(CC2CCCc3c(C=O)nn(-c4ccc(F)cc4)c32)cc1 (centres undefined)
- IC50 (Progesterone receptor [1]): 163 nM

Structure (SMILES): O=Cc1nn(-c2ccc(F)cc2)c2c1CCCC2Cc1ccc(Cl)cc1 (centres undefined)
- IC50 (Progesterone receptor [1]): 11.9 nM
- SC200 (T47D [2]): inactive

Structure (SMILES): O=Cc1nn(-c2ccc(F)cc2)c2c1CCCC2Cc1ccc2ccccc2c1 (centres undefined)
- IC50 (Progesterone receptor [1]): 56.4 nM
- SC200 (T47D [2]): inactive

Structure (SMILES): COC(=O)c1ccc(-n2nc(C=O)c3c2C(Cc2cccc4ccccc24)CCC3)cc1 (centres undefined)
- IC50 (Progesterone receptor [5]): Not Active

Structure (SMILES): CCCCCCCCOC(=O)c1ccc(-n2nc(C=O)c3c2C(Cc2cccc4ccccc24)CCC3)cc1 (centres undefined)
- IC50 (Progesterone receptor [1]): > 10000 nM
- SC200 (T47D [2]): inactive

Structure (SMILES): O=C(NCc1ccccc1)c1nn(-c2ccc(F)cc2)c2c1CCCC2Cc1cccc2ccccc12 (centres undefined)
- IC50 (Progesterone receptor [1]): > 10000 nM

Structure (SMILES): OCc1nn(-c2ccc(F)cc2)c2c1CCCC2Cc1cccc2ccccc12 (centres undefined)
- IC50 (Progesterone receptor [1]): 52 nM
- SC200 (T47D [6]): inactive

Structure (SMILES): CC(=O)OCc1nn(-c2ccc(F)cc2)c2c1CCCC2Cc1cccc2ccccc12 (centres undefined)
- IC50 (Progesterone receptor [1]): 73 nM
- SC200 (T47D [2]): inactive

Structure (SMILES): O=Cc1nn(-c2ccc(F)cc2)c2c1CCCC2Cc1ccccc1Cl (centres undefined)
- SC200 (T47D [4]): 100 nM
- IC50 (Progesterone receptor [1]): 10.5 nM

Structure (SMILES): O=Cc1nn(-c2ccccc2)c2c1CCCC2Cc1cccc2ccccc12 (centres undefined)
- SC200 (T47D [4]): 56 nM
- IC50 (Progesterone receptor [1]): 6 nM

Structure (SMILES): O=Cc1nn(-c2ccc(F)cc2)c2c1CCCC2Cc1ccc(F)cc1 (centres undefined)
- SC200 (T47D [4]): 27 nM
- IC50 (Progesterone receptor [1]): 6.5 nM

Structure (SMILES): O=Cc1nn(-c2cccc(Cl)c2)c2c1CCCC2Cc1cccc2ccccc12 (centres undefined)
- IC50 (Progesterone receptor [1]): 69 nM

Structure (SMILES): CCC(=O)c1nn(-c2ccc(F)cc2)c2c1CCCC2Cc1cccc2ccccc12 (centres undefined)
- IC50 (Progesterone receptor [1]): 1000 nM

Structure (SMILES): CC(C)c1ccc(CC2CCCc3c(C=O)nn(-c4ccc(F)cc4)c32)cc1 (centres undefined)
- IC50 (Progesterone receptor [1]): 2190 nM

Structure (SMILES): CCCCOC(=O)c1ccc(-n2nc(C=O)c3c2C(Cc2cccc4ccccc24)CCC3)cc1 (centres undefined)
- IC50 (Progesterone receptor [1]): 851 nM
- SC200 (T47D [2]): inactive

Structure (SMILES): O=C(OCc1nn(-c2ccc(F)cc2)c2c1CCCC2Cc1cccc2ccccc12)c1ccccc1 (centres undefined)
- IC50 (Progesterone receptor [1]): 182 nM
- SC200 (T47D [2]): inactive

Structure (SMILES): CC(C)(C)c1ccc(CC2CCCc3c(C=O)nn(-c4ccc(F)cc4)c32)cc1 (centres undefined)
- IC50 (Progesterone receptor [1]): 1000 nM

Structure (SMILES): COc1cccc(CC2CCCc3c(C=O)nn(-c4ccc(F)cc4)c32)c1 (centres undefined)
- SC200 (T47D [4]): 417 nM
- IC50 (Progesterone receptor [1]): 16.8 nM

Structure (SMILES): CCN(CC)C(=O)c1nn(-c2ccc(F)cc2)c2c1CCCC2Cc1cccc2ccccc12 (centres undefined)
- IC50 (Progesterone receptor [1]): 3000 nM

Structure (SMILES): Cc1ccc(CC2CCCc3c(C=O)nn(-c4ccc(F)cc4)c32)cc1 (centres undefined)
- SC200 (T47D [4]): 275 nM
- IC50 (Progesterone receptor [1]): 7.7 nM

Structure (SMILES): Fc1ccc(-n2nc(/C=N/c3ccccc3)c3c2C(Cc2cccc4ccccc24)CCC3)cc1 (centres undefined)
- SC200 (T47D [4]): 185 nM
- IC50 (Progesterone receptor [1]): 2.3 nM

Structure (SMILES): O=Cc1nn(-c2ccc(F)cc2)c2c1CCCC2Cc1ccc(F)c(F)c1 (centres undefined)
- SC200 (T47D [4]): 81 nM
- IC50 (Progesterone receptor [1]): 2 nM

Structure (SMILES): COc1ccc(CC2CCCc3c(C=O)nn(-c4ccc(F)cc4)c32)cc1OC (centres undefined)
- IC50 (Progesterone receptor [1]): 1890 nM

Structure (SMILES): CC(=O)N/N=C/c1nn(-c2ccc(F)cc2)c2c1CCCC2Cc1cccc2ccccc12 (centres undefined)
- IC50 (Progesterone receptor [1]): > 10000 nM

Structure (SMILES): N#Cc1nn(-c2ccc(F)cc2)c2c1CCCC2Cc1cccc2ccccc12 (centres undefined)
- IC50 (Progesterone receptor [1]): 41 nM
- SC200 (T47D [2]): inactive

Structure (SMILES): CCOC(=O)OCc1nn(-c2ccc(F)cc2)c2c1CCCC2Cc1cccc2ccccc12 (centres undefined)
- IC50 (Progesterone receptor [1]): 90 nM
- SC200 (T47D [2]): inactive

Structure (SMILES): COC(=O)Nc1nn(-c2ccc(F)cc2)c2c1CCCC2Cc1cccc2ccccc12 (centres undefined)
- IC50 (Progesterone receptor [1]): 1570 nM

Structure (SMILES): O/N=C/c1nn(-c2ccc(F)cc2)c2c1CCCC2Cc1cccc2ccccc12 (centres undefined)
- IC50 (Progesterone receptor [1]): 628 nM

Structure (SMILES): CCCCCCCC(=O)OCc1nn(-c2ccc(F)cc2)c2c1CCCC2Cc1cccc2ccccc12 (centres undefined)
- IC50 (Progesterone receptor [1]): 4010 nM
- SC200 (T47D [2]): inactive

Structure (SMILES): COc1ccc(-n2nc(C=O)c3c2C(Cc2cccc4ccccc24)CCC3)cc1 (centres undefined)
- IC50 (Progesterone receptor [1]): 12.7 nM
- SC200 (T47D [2]): inactive

Structure (SMILES): CC(=O)OC(OC(C)=O)c1nn(-c2ccc(F)cc2)c2c1CCCC2Cc1cccc2ccccc12 (centres undefined)
- SC200 (T47D [4]): 72 nM
- IC50 (Progesterone receptor [1]): 5.3 nM

Structure (SMILES): CC(=O)c1nn(-c2ccc(F)cc2)c2c1CCCC2Cc1cccc2ccccc12 (centres undefined)
- IC50 (Progesterone receptor [1]): 1760 nM

Structure (SMILES): Fc1ccc(-n2nc(CNCc3ccccc3)c3c2C(Cc2cccc4ccccc24)CCC3)cc1 (centres undefined)
- IC50 (Progesterone receptor [1]): 1380 nM

Structure (SMILES): CCC(O)c1nn(-c2ccc(F)cc2)c2c1CCCC2Cc1cccc2ccccc12 (centres undefined)
- IC50 (Progesterone receptor [1]): 690 nM

Structure (SMILES): CCN(CC)Cc1nn(-c2ccc(F)cc2)c2c1CCCC2Cc1cccc2ccccc12 (centres undefined)
- IC50 (Progesterone receptor [1]): 1380 nM

Structure (SMILES): Fc1ccc(-n2nc(C3OCCO3)c3c2C(Cc2cccc4ccccc24)CCC3)cc1 (centres undefined)
- IC50 (Progesterone receptor [1]): 97 nM

Structure (SMILES): O=C(N/N=C/c1nn(-c2ccc(F)cc2)c2c1CCCC2Cc1cccc2ccccc12)c1ccccc1 (centres undefined)
- SC200 (T47D [4]): 2265 nM
- IC50 (Progesterone receptor [1]): > 10000 nM

Structure (SMILES): CN(C)/N=C/c1nn(-c2ccc(F)cc2)c2c1CCCC2Cc1cccc2ccccc12 (centres undefined)
- IC50 (Progesterone receptor [1]): 547 nM
- SC200 (T47D [2]): inactive
